HELM strings list units from the 5' end as sugar, base in round brackets, then linkage (d deoxyribose, r ribose, m 2'-O-methyl, p phosphodiester). Strings are as the collection lists them; they lack the last nucleoside at the 3' end of the tested compound. [moe] = 2'-O-(2-methoxyethyl) (MOE); [sp] = phosphorothioate linkage; [m5C] = 5-methylcytosine
Target: PRNP
Assay: mouse, dose not given
Settings: ASO

Substance | 3 h FOB score [score 0-7]
RNA1{[moe](G)[sp].[moe](T)p.[moe](T)p.[moe]([m5C])p.[moe](T)[sp].d(T)[sp].d(T)[sp].d(T)[sp].d([m5C])[sp].d(T)[sp].d(T)[sp].d(T)[sp].d(G)[sp].d([m5C])[sp].d(A)[sp].[moe]([m5C])p.[moe](A)p.[moe]([m5C])[sp].[moe](T)}$$$$ (last 3' nucleoside missing) | 6.25
RNA1{[moe](G)[sp].[moe](T)p.[moe]([m5C])p.[moe](A)p.[moe](A)[sp].d(A)[sp].d(A)[sp].d(T)[sp].d([m5C])[sp].d(A)[sp].d(T)[sp].d(T)[sp].d([m5C])[sp].d(T)[sp].d(G)[sp].[moe](G)p.[moe](T)p.[moe](T)[sp].[moe](T)}$$$$ (last 3' nucleoside missing) | 1
RNA1{[moe](G)[sp].[moe](T)p.[moe]([m5C])p.[moe](A)p.[moe](G)[sp].d(T)[sp].d(T)[sp].d(T)[sp].d(T)[sp].d(T)[sp].d([m5C])[sp].d([m5C])[sp].d([m5C])[sp].[moe]([m5C])p.[moe](A)p.[moe]([m5C])[sp].[moe](A)}$$$$ (last 3' nucleoside missing) | 0
RNA1{[moe](G)[sp].[moe](T)p.[moe]([m5C])p.[moe](A)p.[moe](G)[sp].d(T)[sp].d(T)[sp].d(T)[sp].d(T)[sp].d(T)[sp].d([m5C])[sp].d([m5C])[sp].d([m5C])[sp].d([m5C])[sp].d(A)[sp].[moe]([m5C])p.[moe](A)p.[moe](T)[sp].[moe](A)}$$$$ (last 3' nucleoside missing) | 1
RNA1{[moe](G)[sp].[moe](T)p.[moe]([m5C])p.[moe](A)p.[moe](G)p.[moe](T)p.d(T)[sp].d(T)[sp].d(T)[sp].d(T)[sp].d([m5C])[sp].d([m5C])[sp].d([m5C])[sp].d([m5C])[sp].d(A)[sp].d([m5C])[sp].[moe](A)p.[moe](T)[sp].[moe](A)}$$$$ (last 3' nucleoside missing) | 0
RNA1{[moe](G)[sp].[moe](T)p.[moe]([m5C])p.[moe](A)p.[moe](G)p.d(T)[sp].d(T)[sp].d(T)[sp].d(T)[sp].d(T)[sp].d([m5C])[sp].d([m5C])[sp].d([m5C])[sp].d([m5C])[sp].[moe](A)[sp].[moe]([m5C])p.[moe](A)p.[moe](T)}$$$$ (last 3' nucleoside missing) | 0
RNA1{[moe](G)[sp].[moe](T)p.[moe]([m5C])p.[moe](A)p.[moe](G)p.d(T)[sp].d(T)[sp].d(T)[sp].d(T)[sp].d(T)[sp].d([m5C])[sp].d([m5C])[sp].d([m5C])[sp].d([m5C])[sp].[moe](A)p.[moe]([m5C])p.[moe](A)[sp].[moe](T)}$$$$ (last 3' nucleoside missing) | 0
RNA1{[moe](G)[sp].[moe](T)p.[moe]([m5C])p.[moe](A)p.[moe](T)[sp].d(A)[sp].d(A)[sp].d(T)[sp].d(T)[sp].d(T)[sp].d(T)[sp].d([m5C])[sp].d(T)[sp].d(T)[sp].d(A)[sp].[moe](G)p.[moe]([m5C])p.[moe](T)[sp].[moe](A)}$$$$ (last 3' nucleoside missing) | 0
RNA1{[moe](G)[sp].[moe](T)p.[moe]([m5C])p.[moe](A)p.[moe](T)p.[moe](A)p.d(A)[sp].d(T)[sp].d(T)[sp].d(T)[sp].d(T)[sp].d([m5C])[sp].d(T)[sp].d(T)[sp].d(A)[sp].d(G)[sp].[moe]([m5C])p.[moe](T)[sp].[moe](A)}$$$$ (last 3' nucleoside missing) | 2.5
RNA1{[moe](G)[sp].[moe](T)p.[moe]([m5C])p.[moe](A)p.[moe](T)p.d(A)[sp].d(A)[sp].d(T)[sp].d(T)[sp].d(T)[sp].d(T)[sp].d([m5C])[sp].d(T)[sp].d(T)[sp].[moe](A)[sp].[moe](G)p.[moe]([m5C])p.[moe](T)}$$$$ (last 3' nucleoside missing) | 0
RNA1{[moe](G)[sp].[moe](T)p.[moe]([m5C])p.[moe](A)p.d(G)[sp].d(T)[sp].d(T)[sp].d(T)[sp].d(T)[sp].d(T)[sp].d([m5C])[sp].d([m5C])[sp].d([m5C])[sp].d([m5C])[sp].[moe](A)p.[moe]([m5C])p.[moe](A)p.[moe](T)[sp].[moe](A)}$$$$ (last 3' nucleoside missing) | 0
RNA1{[moe](G)[sp].[moe](T)p.[moe]([m5C])p.[moe](A)p.d(T)[sp].d(A)[sp].d(A)[sp].d(T)[sp].d(T)[sp].d(T)[sp].d(T)[sp].d([m5C])[sp].d(T)[sp].d(T)[sp].[moe](A)p.[moe](G)p.[moe]([m5C])p.[moe](T)[sp].[moe](A)}$$$$ (last 3' nucleoside missing) | 0.25
RNA1{[moe](G)[sp].[moe](T)p.[moe]([m5C])p.[moe]([m5C])p.[moe](A)[sp].d(A)[sp].d(A)[sp].d(A)[sp].d(A)[sp].d(T)[sp].d(A)[sp].d(A)[sp].d(G)[sp].d(T)[sp].d([m5C])[sp].[moe]([m5C])p.[moe](A)p.[moe](G)[sp].[moe](A)}$$$$ (last 3' nucleoside missing) | 1
RNA1{[moe](G)[sp].[moe](T)p.[moe]([m5C])p.[moe]([m5C])p.[moe](A)[sp].d(T)[sp].d(T)[sp].d(T)[sp].d(T)[sp].d([m5C])[sp].d(T)[sp].d(G)[sp].d(T)[sp].d(G)[sp].d([m5C])[sp].[moe](T)p.[moe](T)p.[moe](T)[sp].[moe](T)}$$$$ (last 3' nucleoside missing) | 4.5
RNA1{[moe](G)[sp].[moe](T)p.[moe]([m5C])p.d(A)[sp].d(G)[sp].d(T)[sp].d(T)[sp].d(T)[sp].d(T)[sp].d(T)[sp].d([m5C])[sp].d([m5C])[sp].d([m5C])[sp].[moe]([m5C])p.[moe](A)p.[moe]([m5C])p.[moe](A)p.[moe](T)[sp].[moe](A)}$$$$ (last 3' nucleoside missing) | 0
RNA1{[moe](G)[sp].[moe]([m5C])[sp].[moe]([m5C])[sp].[moe](A)[sp].[moe]([m5C])[sp].d(A)[sp].d(T)[sp].d(A)[sp].d(T)[sp].d(A)[sp].d(G)[sp].d(G)[sp].d(G)[sp].d(T)[sp].d([m5C])[sp].[moe]([m5C])[sp].[moe](T)[sp].[moe](T)[sp].[moe](T)}$$$$ (last 3' nucleoside missing) | 4.25
RNA1{[moe](G)[sp].[moe]([m5C])p.[moe](A)p.[moe](A)p.[moe](G)[sp].d([m5C])[sp].d(A)[sp].d(G)[sp].d(T)[sp].d(T)[sp].d([m5C])[sp].d(T)[sp].d(T)[sp].d(T)[sp].d(T)[sp].[moe]([m5C])p.[moe](T)p.[moe](T)[sp].[moe](T)}$$$$ (last 3' nucleoside missing) | 6
RNA1{[moe](G)[sp].[moe]([m5C])p.[moe](A)p.[moe](A)p.[moe]([m5C])[sp].d(G)[sp].d(G)[sp].d([m5C])[sp].d(T)[sp].d([m5C])[sp].d(A)[sp].d(T)[sp].d(G)[sp].d(A)[sp].d(T)[sp].[moe](G)p.[moe](A)p.[moe](A)[sp].[moe]([m5C])}$$$$ (last 3' nucleoside missing) | 3.5
RNA1{[moe](G)[sp].[moe]([m5C])p.[moe](A)p.[moe](G)p.[moe](A)[sp].d(A)[sp].d(A)[sp].d(G)[sp].d(T)[sp].d(A)[sp].d(G)[sp].d([m5C])[sp].d(T)[sp].d(A)[sp].d(T)[sp].[moe]([m5C])p.[moe](A)p.[moe](T)[sp].[moe](T)}$$$$ (last 3' nucleoside missing) | 4.25
